# Reference: PMC5513037, “Examining the influence of specificity ligands and ATP-competitive ligands on the overall effectiveness of bivalent kinase inhibitors” (Proteome Science, 2017)
# How the values were obtained:
# Assay in all cases: KAM-matrix competition in K562 lysate;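 for 0.001 uM KAM: median log10 fold change of treatment over DMSO control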;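 for 0.01 uM KAM: median log10 fold change of treatment over DMSO control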;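 for 0.1 uM KAM: median log10 fold change of treatment over DMSO control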;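 for 1 uM KAM: median log10 fold change of treatment over DMSO control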;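 for 10 uM KAM: median log10 fold change of treatment over DMSO control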
# Assay type in all cases: binding
# CDC42BPA = target: T1, CDC42BPA (Homo sapiens, UniProt Q5VT25);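 for 0.001 uM KAM: median log10 fold change of treatment over DMSO control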;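 for 0.01 uM KAM: median log10 fold change of treatment over DMSO control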;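 for 0.1 uM KAM: median log10 fold change of treatment over DMSO control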;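 for 1 uM KAM: median log10 fold change of treatment over DMSO control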;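 for 10 uM KAM: median log10 fold change of treatment over DMSO control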
# T1 construct: endogenous in cells; host or cells: K562
# T1 sequence (Q5VT25 whole entry): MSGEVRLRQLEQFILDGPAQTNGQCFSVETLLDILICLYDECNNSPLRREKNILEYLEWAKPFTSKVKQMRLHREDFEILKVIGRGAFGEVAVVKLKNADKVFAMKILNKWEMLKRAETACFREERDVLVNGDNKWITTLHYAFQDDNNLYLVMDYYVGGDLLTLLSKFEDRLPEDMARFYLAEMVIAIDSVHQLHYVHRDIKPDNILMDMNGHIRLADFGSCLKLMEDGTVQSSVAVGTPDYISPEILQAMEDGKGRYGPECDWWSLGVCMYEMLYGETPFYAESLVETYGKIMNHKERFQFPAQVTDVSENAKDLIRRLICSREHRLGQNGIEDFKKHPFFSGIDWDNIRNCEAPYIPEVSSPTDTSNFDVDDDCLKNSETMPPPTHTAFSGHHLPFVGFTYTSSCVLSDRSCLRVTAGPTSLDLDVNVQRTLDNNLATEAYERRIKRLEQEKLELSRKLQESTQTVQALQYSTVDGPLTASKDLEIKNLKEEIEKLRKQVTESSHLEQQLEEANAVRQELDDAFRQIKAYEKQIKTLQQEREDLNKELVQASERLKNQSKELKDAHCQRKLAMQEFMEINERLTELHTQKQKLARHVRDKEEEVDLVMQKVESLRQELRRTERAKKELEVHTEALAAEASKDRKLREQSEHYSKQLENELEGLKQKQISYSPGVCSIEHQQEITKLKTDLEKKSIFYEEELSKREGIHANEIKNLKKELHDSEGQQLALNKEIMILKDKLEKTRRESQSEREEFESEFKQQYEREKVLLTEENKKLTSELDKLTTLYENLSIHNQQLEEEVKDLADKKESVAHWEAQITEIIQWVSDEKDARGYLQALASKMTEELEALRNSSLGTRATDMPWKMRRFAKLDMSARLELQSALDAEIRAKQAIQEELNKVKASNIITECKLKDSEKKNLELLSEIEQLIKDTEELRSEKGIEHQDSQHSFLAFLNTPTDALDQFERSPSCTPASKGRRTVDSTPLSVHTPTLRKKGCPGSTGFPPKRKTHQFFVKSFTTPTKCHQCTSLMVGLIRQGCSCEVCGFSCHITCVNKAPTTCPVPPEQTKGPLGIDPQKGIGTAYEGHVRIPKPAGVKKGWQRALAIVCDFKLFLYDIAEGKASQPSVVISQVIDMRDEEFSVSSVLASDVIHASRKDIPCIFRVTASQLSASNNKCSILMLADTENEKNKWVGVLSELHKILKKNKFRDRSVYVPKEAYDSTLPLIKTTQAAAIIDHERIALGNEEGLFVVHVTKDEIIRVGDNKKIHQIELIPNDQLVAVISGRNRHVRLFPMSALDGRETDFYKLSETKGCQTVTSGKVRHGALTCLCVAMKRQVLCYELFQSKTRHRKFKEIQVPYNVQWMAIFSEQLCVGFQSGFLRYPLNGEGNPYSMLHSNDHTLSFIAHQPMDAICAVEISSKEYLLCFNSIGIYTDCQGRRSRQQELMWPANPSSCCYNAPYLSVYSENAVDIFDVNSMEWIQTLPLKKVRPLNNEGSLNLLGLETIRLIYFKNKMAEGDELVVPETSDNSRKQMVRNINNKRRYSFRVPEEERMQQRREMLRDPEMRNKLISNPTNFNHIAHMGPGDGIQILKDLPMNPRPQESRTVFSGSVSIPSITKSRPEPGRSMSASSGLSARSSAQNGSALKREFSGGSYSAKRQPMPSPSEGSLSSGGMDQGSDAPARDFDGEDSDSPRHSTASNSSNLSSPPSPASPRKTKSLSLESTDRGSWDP
# Experimental: (§1) Supplement 12953_2017_125_MOESM1_ESM.zip/MS_Supp Info.xlsx, sheet "KAM" | column: 10 uM KAM; 1 uM KAM; 0.1 uM KAM; 0.01 uM KAM; 0.001 uM KAM; RB50
# MAP4K2 = target: T2, MAP4K2 (Homo sapiens, UniProt Q12851)
# T2 construct: endogenous in cells; host or cells: K562
# T2 sequence (Q12851 1-820): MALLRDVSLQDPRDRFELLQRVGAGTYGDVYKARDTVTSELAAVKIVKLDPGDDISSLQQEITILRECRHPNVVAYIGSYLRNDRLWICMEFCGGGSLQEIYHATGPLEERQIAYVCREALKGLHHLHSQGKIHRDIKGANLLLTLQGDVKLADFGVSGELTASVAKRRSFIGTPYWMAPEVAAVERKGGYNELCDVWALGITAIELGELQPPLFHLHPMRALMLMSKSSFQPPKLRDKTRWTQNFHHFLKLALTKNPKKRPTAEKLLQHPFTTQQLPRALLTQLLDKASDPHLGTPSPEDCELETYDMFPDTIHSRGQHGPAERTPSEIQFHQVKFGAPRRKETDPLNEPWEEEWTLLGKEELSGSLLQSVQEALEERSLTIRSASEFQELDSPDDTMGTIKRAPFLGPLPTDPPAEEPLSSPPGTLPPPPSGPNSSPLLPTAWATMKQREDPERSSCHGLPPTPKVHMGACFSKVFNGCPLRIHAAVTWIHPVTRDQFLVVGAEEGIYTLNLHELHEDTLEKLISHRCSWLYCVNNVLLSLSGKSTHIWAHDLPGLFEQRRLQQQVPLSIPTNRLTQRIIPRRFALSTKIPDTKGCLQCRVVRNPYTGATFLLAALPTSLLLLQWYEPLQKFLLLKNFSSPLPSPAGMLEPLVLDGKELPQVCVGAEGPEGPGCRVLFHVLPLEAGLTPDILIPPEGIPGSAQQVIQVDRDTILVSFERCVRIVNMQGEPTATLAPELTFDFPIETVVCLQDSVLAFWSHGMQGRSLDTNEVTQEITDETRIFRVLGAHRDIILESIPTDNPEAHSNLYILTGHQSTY
# Experimental: as §1
# TAOK1 = target: T3, TAOK1 (Homo sapiens, UniProt Q7L7X3)
# T3 construct: endogenous in cells; host or cells: K562 cell lysate
# T3 sequence (Q7L7X3 1-1001): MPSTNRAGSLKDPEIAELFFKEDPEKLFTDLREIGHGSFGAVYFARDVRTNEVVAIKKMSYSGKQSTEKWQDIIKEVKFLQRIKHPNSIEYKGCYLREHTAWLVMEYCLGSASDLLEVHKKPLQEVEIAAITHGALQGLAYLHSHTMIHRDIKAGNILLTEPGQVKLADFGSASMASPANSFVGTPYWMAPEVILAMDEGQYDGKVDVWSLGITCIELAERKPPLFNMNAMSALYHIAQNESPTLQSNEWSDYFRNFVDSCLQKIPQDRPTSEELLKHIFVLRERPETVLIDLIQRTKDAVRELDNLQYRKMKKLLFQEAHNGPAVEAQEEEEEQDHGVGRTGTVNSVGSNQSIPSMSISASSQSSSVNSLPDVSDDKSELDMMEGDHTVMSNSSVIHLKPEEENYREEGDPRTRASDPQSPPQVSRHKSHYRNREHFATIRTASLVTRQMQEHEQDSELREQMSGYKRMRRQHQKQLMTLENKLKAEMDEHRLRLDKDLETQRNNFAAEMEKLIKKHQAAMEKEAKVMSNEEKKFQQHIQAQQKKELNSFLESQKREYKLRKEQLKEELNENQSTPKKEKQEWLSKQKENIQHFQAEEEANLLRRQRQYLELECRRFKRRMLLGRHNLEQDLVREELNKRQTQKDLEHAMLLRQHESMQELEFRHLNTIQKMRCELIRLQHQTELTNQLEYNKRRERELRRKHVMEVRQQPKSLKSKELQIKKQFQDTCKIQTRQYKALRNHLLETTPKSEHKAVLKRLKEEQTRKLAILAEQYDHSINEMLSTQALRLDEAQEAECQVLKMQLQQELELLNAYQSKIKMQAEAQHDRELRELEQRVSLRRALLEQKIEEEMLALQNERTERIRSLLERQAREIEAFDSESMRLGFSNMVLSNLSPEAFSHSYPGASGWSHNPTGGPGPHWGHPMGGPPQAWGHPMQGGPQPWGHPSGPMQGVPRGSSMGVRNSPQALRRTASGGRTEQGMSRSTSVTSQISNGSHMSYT
# Experimental: as §1
# ACTR2 = target: T4, ACTR2 (Homo sapiens, UniProt P61160);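 for 0.001 uM KAM: median log10 fold change of treatment over DMSO control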;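 for 0.01 uM KAM: median log10 fold change of treatment over DMSO control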;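 for 0.1 uM KAM: median log10 fold change of treatment over DMSO control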;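 for 1 uM KAM: median log10 fold change of treatment over DMSO control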;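 for 10 uM KAM: median log10 fold change of treatment over DMSO control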
# T4 construct: endogenous in cells; host or cells: K562
# Experimental: as §1
# MAPKAPK5 = target: T5, MAPKAPK5 (Homo sapiens, UniProt Q8IW41)
# T5 construct: endogenous in cells; host or cells: K562
# T5 sequence (Q8IW41 1-473): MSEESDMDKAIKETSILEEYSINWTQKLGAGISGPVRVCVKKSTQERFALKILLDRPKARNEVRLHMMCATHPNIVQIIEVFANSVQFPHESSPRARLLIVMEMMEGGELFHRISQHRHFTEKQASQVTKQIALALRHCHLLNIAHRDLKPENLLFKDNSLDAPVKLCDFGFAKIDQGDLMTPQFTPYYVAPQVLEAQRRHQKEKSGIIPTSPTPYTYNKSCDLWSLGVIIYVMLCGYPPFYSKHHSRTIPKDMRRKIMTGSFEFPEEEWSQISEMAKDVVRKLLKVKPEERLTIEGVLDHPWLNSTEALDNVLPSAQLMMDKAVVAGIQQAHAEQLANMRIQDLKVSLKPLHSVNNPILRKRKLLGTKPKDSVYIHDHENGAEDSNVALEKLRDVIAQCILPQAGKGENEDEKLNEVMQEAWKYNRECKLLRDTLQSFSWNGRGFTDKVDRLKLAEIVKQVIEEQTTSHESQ
# Experimental: as §1
# [1] = KAM 0.001-10 uM, read-out: RB50 (the source's name)
# [2] = read-out: RB50 (the source's name)
structure (smiles),measurement,setting,value
N#CCc1ccc(Nc2nc(NCCCN)cc(Nc3cc(C4CC4)[nH]n3)n2)cc1 [KAM],IC50,CDC42BPA; [1],> 10 µM
same,0.001 uM KAM,CDC42BPA; relative to 0 uM KAM = 0,-0.02138
same,0.01 uM KAM,CDC42BPA; relative to 0 uM KAM = 0,-0.0113
same,0.1 uM KAM,CDC42BPA; relative to 0 uM KAM = 0,-0.01108
same,1 uM KAM,CDC42BPA; relative to 0 uM KAM = 0,0.04656
same,10 uM KAM,CDC42BPA; relative to 0 uM KAM = 0,-0.06135
same,median Log10 fold change,MAP4K2; 0.001 uM KAM,-0.01936
same,median Log10 fold change,MAP4K2; 0.01 uM KAM,-0.0303
same,median Log10 fold change,MAP4K2; 0.1 uM KAM,-0.2006
same,median Log10 fold change,MAP4K2; 1 uM KAM,-0.2485
same,median Log10 fold change,MAP4K2; 10 uM KAM,-0.341
same,IC50,MAP4K2; [2],2.23 µM
same,median Log10 fold change,TAOK1; 0.001 uM KAM,0.00525
same,median Log10 fold change,TAOK1; 0.01 uM KAM,0.00511
same,median Log10 fold change,TAOK1; 0.1 uM KAM,-0.09468
same,median Log10 fold change,TAOK1; 1 uM KAM,-0.2373
same,median Log10 fold change,TAOK1; 10 uM KAM,-0.3152
same,IC50,TAOK1; [2],4.15 µM
same,IC50,ACTR2; [1],> 10 µM
same,0.001 uM KAM,ACTR2; relative to 0 uM KAM = 0,-0.002123
same,0.01 uM KAM,ACTR2; relative to 0 uM KAM = 0,0.01622
same,0.1 uM KAM,ACTR2; relative to 0 uM KAM = 0,0.01541
same,1 uM KAM,ACTR2; relative to 0 uM KAM = 0,0.07708
same,10 uM KAM,ACTR2; relative to 0 uM KAM = 0,0.05031
same,median Log10 fold change,MAPKAPK5; 0.001 uM KAM,0.03286
same,median Log10 fold change,MAPKAPK5; 0.01 uM KAM,-0.006541
same,median Log10 fold change,MAPKAPK5; 0.1 uM KAM,-0.1605
same,median Log10 fold change,MAPKAPK5; 1 uM KAM,-0.3604
same,median Log10 fold change,MAPKAPK5; 10 uM KAM,-0.4852
same,IC50,MAPKAPK5; [2],0.729 µM
